Measurements published in PubChem BioAssay AID2060617 (Molecular Pharmacology Branch, DTP, NCI, 2025).

Tested on: 485368-065-R4-J2-PDC spheroids with HUVEC/MSC, viability
Test: Anticancer human tumor 485368-065-R4-J2-PDC patient-derived pancreatic carcinoma cell line growth inhibition [CLK]
Conditions: for IC50: curve of first compound; for viability, T/C: stronger effect = lower value
In short: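 Patient-derived tumor cells grown as complex spheroids with HUVEC endothelial cells and mesenchymal stem cells, treated with drug combinations. Concentrations descend in half-log steps from near clinical Cmax, or from 10 microM if Cmax unknown.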

[1] = second compound 0.0316 µM, first compound 0.0316 µM
[2] = second compound 0.0316 µM, first compound 0.1 µM
[3] = second compound 0.0316 µM, first compound 0.316 µM
[4] = second compound 0.0316 µM, first compound 1 µM
[5] = second compound 0.0316 µM, first compound 3.16 µM
[6] = second compound 0.0316 µM, first compound 10 µM
[7] = second compound 0.1 µM, first compound 0.0316 µM
[8] = second compound 0.1 µM, first compound 0.1 µM
[9] = second compound 0.1 µM, first compound 0.316 µM
[10] = second compound 0.1 µM, first compound 1 µM
[11] = second compound 0.1 µM, first compound 3.16 µM
[12] = second compound 0.1 µM, first compound 10 µM
[13] = second compound 0.316 µM, first compound 0.0316 µM
[14] = second compound 0.316 µM, first compound 0.1 µM
[15] = second compound 0.316 µM, first compound 0.316 µM
[16] = second compound 0.316 µM, first compound 1 µM
[17] = second compound 0.316 µM, first compound 3.16 µM
[18] = second compound 0.316 µM, first compound 10 µM
[19] = second compound 1 µM, first compound 0.0316 µM
[20] = second compound 1 µM, first compound 0.1 µM
[21] = second compound 1 µM, first compound 0.316 µM
[22] = second compound 1 µM, first compound 1 µM
[23] = second compound 1 µM, first compound 3.16 µM
[24] = second compound 1 µM, first compound 10 µM
[25] = second compound 3.16 µM, first compound 0.0316 µM
[26] = second compound 3.16 µM, first compound 0.1 µM
[27] = second compound 3.16 µM, first compound 0.316 µM
[28] = second compound 3.16 µM, first compound 1 µM
[29] = second compound 3.16 µM, first compound 3.16 µM
[30] = second compound 3.16 µM, first compound 10 µM
[31] = second compound 10 µM, first compound 0.0316 µM
[32] = second compound 10 µM, first compound 0.1 µM
[33] = second compound 10 µM, first compound 0.316 µM
[34] = second compound 10 µM, first compound 1 µM
[35] = second compound 10 µM, first compound 3.16 µM
[36] = second compound 10 µM, first compound 10 µM
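Further: spheroids exposed to compounds for seven days.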
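Wherever viability, T/C is given: 100% = DMSO vehicle control wells.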

## CC(C)CC(NC(=O)C(Cc1ccccc1)NC(=O)c1cnccn1)B(O)O (stereo unspecified) + CNC(=O)c1ccc(Nc2nc(OC3CCCC3)c3c(-c4ccc5nc(C)oc5c4)c[nH]c3n2)c(OC)c1
Second compound 0.0316 µM
  IC50: 0.00722 µM
Second compound 0.1 µM
  IC50: 0.00719 µM
Second compound 0.316 µM
  IC50: 0.00721 µM
Second compound 1 µM
  IC50: 0.00669 µM
Second compound 3.16 µM
  IC50: 0.00566 µM
Second compound 10 µM
  IC50: 0.00491 µM
Second compound 0.0316 µM, first compound 0.000949 µM
  viability, T/C: 99.6%
Second compound 0.0316 µM, first compound 0.003 µM
  viability, T/C: 122%
Second compound 0.0316 µM, first compound 0.00949 µM
  viability, T/C: 31.1%
Second compound 0.0316 µM, first compound 0.03 µM
  viability, T/C: 16.4%
Second compound 0.0316 µM, first compound 0.0949 µM
  viability, T/C: 13.2%
Second compound 0.0316 µM, first compound 0.3 µM
  viability, T/C: 3.24%
Second compound 0.1 µM, first compound 0.000949 µM
  viability, T/C: 95.3%
Second compound 0.1 µM, first compound 0.003 µM
  viability, T/C: 115%
Second compound 0.1 µM, first compound 0.00949 µM
  viability, T/C: 32.5%
Second compound 0.1 µM, first compound 0.03 µM
  viability, T/C: 13.6%
Second compound 0.1 µM, first compound 0.0949 µM
  viability, T/C: 11.8%
Second compound 0.1 µM, first compound 0.3 µM
  viability, T/C: 3.58%
Second compound 0.316 µM, first compound 0.000949 µM
  viability, T/C: 94.3%
Second compound 0.316 µM, first compound 0.003 µM
  viability, T/C: 112%
Second compound 0.316 µM, first compound 0.00949 µM
  viability, T/C: 33.4%
Second compound 0.316 µM, first compound 0.03 µM
  viability, T/C: 12.5%
Second compound 0.316 µM, first compound 0.0949 µM
  viability, T/C: 10.1%
Second compound 0.316 µM, first compound 0.3 µM
  viability, T/C: 3.9%
Second compound 1 µM, first compound 0.000949 µM
  viability, T/C: 102%
Second compound 1 µM, first compound 0.003 µM
  viability, T/C: 101%
Second compound 1 µM, first compound 0.00949 µM
  viability, T/C: 28%
Second compound 1 µM, first compound 0.03 µM
  viability, T/C: 12.9%
Second compound 1 µM, first compound 0.0949 µM
  viability, T/C: 7.65%
Second compound 1 µM, first compound 0.3 µM
  viability, T/C: 1.74%
Second compound 3.16 µM, first compound 0.000949 µM
  viability, T/C: 89.4%
Second compound 3.16 µM, first compound 0.003 µM
  viability, T/C: 89.7%
Second compound 3.16 µM, first compound 0.00949 µM
  viability, T/C: 17.9%
Second compound 3.16 µM, first compound 0.03 µM
  viability, T/C: 7.21%
Second compound 3.16 µM, first compound 0.0949 µM
  viability, T/C: 5.69%
Second compound 3.16 µM, first compound 0.3 µM
  viability, T/C: 2.56%
Second compound 10 µM, first compound 0.000949 µM
  viability, T/C: 77.9%
Second compound 10 µM, first compound 0.003 µM
  viability, T/C: 78.2%
Second compound 10 µM, first compound 0.00949 µM
  viability, T/C: 12.5%
Second compound 10 µM, first compound 0.03 µM
  viability, T/C: 5.34%
Second compound 10 µM, first compound 0.0949 µM
  viability, T/C: 4.07%
Second compound 10 µM, first compound 0.3 µM
  viability, T/C: 1.36%

## CC1(C)CCC(CN2CCN(c3ccc(C(=O)NS(=O)(=O)c4ccc(NCC5CCOCC5)c([N+](=O)[O-])c4)c(Oc4cnc5[nH]ccc5c4)c3)CC2)=C(c2ccc(Cl)cc2)C1 + CNC(=O)c1ccc(Nc2nc(OC3CCCC3)c3c(-c4ccc5nc(C)oc5c4)c[nH]c3n2)c(OC)c1
Second compound 0.0316 µM
  IC50: 7.11 µM
Second compound 0.1 µM
  IC50: 7.32 µM
Second compound 0.316 µM
  IC50: 6.86 µM
Second compound 1 µM
  IC50: 6.75 µM
Second compound 3.16 µM
  IC50: 6.51 µM
Second compound 10 µM
  IC50: 6.43 µM
[1]
  viability, T/C: 101%
[2]
  viability, T/C: 95.1%
[3]
  viability, T/C: 85.5%
[4]
  viability, T/C: 102%
[5]
  viability, T/C: 117%
[6]
  viability, T/C: 28.9%
[7]
  viability, T/C: 98.2%
[8]
  viability, T/C: 97.6%
[9]
  viability, T/C: 98.3%
[10]
  viability, T/C: 105%
[11]
  viability, T/C: 107%
[12]
  viability, T/C: 30.8%
[13]
  viability, T/C: 86.7%
[14]
  viability, T/C: 89.8%
[15]
  viability, T/C: 93.4%
[16]
  viability, T/C: 89.5%
[17]
  viability, T/C: 97.1%
[18]
  viability, T/C: 29.9%
[19]
  viability, T/C: 74.6%
[20]
  viability, T/C: 76%
[21]
  viability, T/C: 80.7%
[22]
  viability, T/C: 87.2%
[23]
  viability, T/C: 98.7%
[24]
  viability, T/C: 32.6%
[25]
  viability, T/C: 74%
[26]
  viability, T/C: 73.9%
[27]
  viability, T/C: 74%
[28]
  viability, T/C: 73.5%
[29]
  viability, T/C: 93.5%
[30]
  viability, T/C: 33.5%
[31]
  viability, T/C: 72.6%
[32]
  viability, T/C: 72%
[33]
  viability, T/C: 62.2%
[34]
  viability, T/C: 72.6%
[35]
  viability, T/C: 90.8%
[36]
  viability, T/C: 35.2%

## CC1COCCN1c1cc(C2(S(C)(=N)=O)CC2)nc(-c2ccnc3[nH]ccc23)n1 (stereo unspecified) + CNC(=O)c1ccc(Nc2nc(OC3CCCC3)c3c(-c4ccc5nc(C)oc5c4)c[nH]c3n2)c(OC)c1
Second compound 0.0316 µM
  IC50: > 10 µM
Second compound 0.1 µM
  IC50: > 10 µM
Second compound 0.316 µM
  IC50: > 10 µM
Second compound 1 µM
  IC50: > 10 µM
Second compound 3.16 µM
  IC50: > 10 µM
Second compound 10 µM
  IC50: > 10 µM
[1]
  viability, T/C: 82.7%
[2]
  viability, T/C: 96%
[3]
  viability, T/C: 102%
[4]
  viability, T/C: 101%
[5]
  viability, T/C: 99.2%
[6]
  viability, T/C: 107%
[7]
  viability, T/C: 91.1%
[8]
  viability, T/C: 95.1%
[9]
  viability, T/C: 101%
[10]
  viability, T/C: 97.6%
[11]
  viability, T/C: 102%
[12]
  viability, T/C: 97.4%
[13]
  viability, T/C: 84.7%
[14]
  viability, T/C: 85%
[15]
  viability, T/C: 75.9%
[16]
  viability, T/C: 89.7%
[17]
  viability, T/C: 90.3%
[18]
  viability, T/C: 82%
[19]
  viability, T/C: 80.3%
[20]
  viability, T/C: 78%
[21]
  viability, T/C: 72.6%
[22]
  viability, T/C: 81.2%
[23]
  viability, T/C: 90.1%
[24]
  viability, T/C: 73.4%
[25]
  viability, T/C: 76.3%
[26]
  viability, T/C: 78.2%
[27]
  viability, T/C: 68%
[28]
  viability, T/C: 72.7%
[29]
  viability, T/C: 68.7%
[30]
  viability, T/C: 54.1%
[31]
  viability, T/C: 74%
[32]
  viability, T/C: 70.6%
[33]
  viability, T/C: 62.2%
[34]
  viability, T/C: 71.6%
[35]
  viability, T/C: 69%
[36]
  viability, T/C: 59.6%
